For 26 molecules, IC50 results are on record in patent US11390609B2, “Rho-associated protein kinase inhibitor, pharmaceutical composition comprising same, and preparation method and use thereof” (BEIJING TIDE PHARMACEUTICAL CO., LTD., priority 2017, dated 2022).

Where only a bound is given, the exact number is not on record here.

For this test, the target named is ROCK1 (Homo sapiens (Human), UniProt Q13464). The test can be described thus: ROCK1 kinase IC50 assay (biological test method similar to the ROCK2 assay). It is filed as biochemical. Here is the method: The kinase IC50 was determined by a commercialized CISBIO kinase detection kit, HTRF KinEASE-STK S2 kit (62ST2PEC). ROCK2 (01-119) employed in the reaction was purchased from Carna Biosciences.
Before the assay, the following working solutions as needed were formulated with corresponding reagents according to the instruction of the kinase detection kit: 1×kinase buffer, 5×STK-52 substrate working solution (1.5 μM) and 5×ATP working solution (1.5 μM), 5×ROCK2 kinase working solution, 4×Streptavidin-XL665 working solution, and 4×STK-Ab-Cryptate 2 detection solution. Then the assay was performed according to the following procedure.
A solution of a compound at a concentration of 10000 nM was prepared with the 1×kinase buffer containing 2.5% DMSO. Gradient dilution of the solution of the compound was performed with the kinase buffer containing DMSO, so as to obtain solutions of a test compound at 9 different concentrations. In addition to wells of test compounds, a positive well (containing all the reagents except the compound) and a negative well (containing all the reagents except the test compound and kinase) were set. Except for the control wells (positive and negative wells), a solution of a test compound (4 μL) was added to each of the reaction wells, and a solution of 2.5% DMSO was added to the control wells. Then the substrate ([…], 2 μL. 5×STK-S2 substrate working solution) was added to each of the reaction wells. The 5×ROCK2 kinase working solution (2 μL, containing 1.4 ng ROCK2 kinase) was added to each of the reaction wells except for the negative well, the volume of which was made up with the 1×kinase buffer (2 μL). The 5×ATP working solution (2 μL) was added to each of the reaction wells, and the mixtures were incubated at room temperature for 2 hours. After the kinase reaction was complete, the 4×Streptavidin-XL665 working solution was added to each of the reaction wells, the solutions were mixed, followed by immediate addition of the 4×STK-Ab-Cryptate 2 detection solution (5 μL), and the mixtures were incubated at room temperature for 1 hour. The fluorescence signal was read on ENVISION (Perkinelmer) (excitation wavelength: 320 nm, and emission wavelength: 665 nm and 615 nm). The inhibitory rate in each well was calculated based on the fluorescence intensity value: ER (Emission Ratio)=(fluorescence intensity at 665 nm/fluorescence intensity at 615 nm); inhibitory rate=(ERpositive−ERtest compound)/(ERpositive−ERnegative)*100%. Curves were plotted and fitted to obtain the median inhibitory concentration (IC50) of each teat compound with the PRISM 5.0 software.
According to a biological test method similar to the above, the IC50 values of the compounds on ROCK1 were tested.

Chain of ROCK1 (Q13464 whole entry, species assumed): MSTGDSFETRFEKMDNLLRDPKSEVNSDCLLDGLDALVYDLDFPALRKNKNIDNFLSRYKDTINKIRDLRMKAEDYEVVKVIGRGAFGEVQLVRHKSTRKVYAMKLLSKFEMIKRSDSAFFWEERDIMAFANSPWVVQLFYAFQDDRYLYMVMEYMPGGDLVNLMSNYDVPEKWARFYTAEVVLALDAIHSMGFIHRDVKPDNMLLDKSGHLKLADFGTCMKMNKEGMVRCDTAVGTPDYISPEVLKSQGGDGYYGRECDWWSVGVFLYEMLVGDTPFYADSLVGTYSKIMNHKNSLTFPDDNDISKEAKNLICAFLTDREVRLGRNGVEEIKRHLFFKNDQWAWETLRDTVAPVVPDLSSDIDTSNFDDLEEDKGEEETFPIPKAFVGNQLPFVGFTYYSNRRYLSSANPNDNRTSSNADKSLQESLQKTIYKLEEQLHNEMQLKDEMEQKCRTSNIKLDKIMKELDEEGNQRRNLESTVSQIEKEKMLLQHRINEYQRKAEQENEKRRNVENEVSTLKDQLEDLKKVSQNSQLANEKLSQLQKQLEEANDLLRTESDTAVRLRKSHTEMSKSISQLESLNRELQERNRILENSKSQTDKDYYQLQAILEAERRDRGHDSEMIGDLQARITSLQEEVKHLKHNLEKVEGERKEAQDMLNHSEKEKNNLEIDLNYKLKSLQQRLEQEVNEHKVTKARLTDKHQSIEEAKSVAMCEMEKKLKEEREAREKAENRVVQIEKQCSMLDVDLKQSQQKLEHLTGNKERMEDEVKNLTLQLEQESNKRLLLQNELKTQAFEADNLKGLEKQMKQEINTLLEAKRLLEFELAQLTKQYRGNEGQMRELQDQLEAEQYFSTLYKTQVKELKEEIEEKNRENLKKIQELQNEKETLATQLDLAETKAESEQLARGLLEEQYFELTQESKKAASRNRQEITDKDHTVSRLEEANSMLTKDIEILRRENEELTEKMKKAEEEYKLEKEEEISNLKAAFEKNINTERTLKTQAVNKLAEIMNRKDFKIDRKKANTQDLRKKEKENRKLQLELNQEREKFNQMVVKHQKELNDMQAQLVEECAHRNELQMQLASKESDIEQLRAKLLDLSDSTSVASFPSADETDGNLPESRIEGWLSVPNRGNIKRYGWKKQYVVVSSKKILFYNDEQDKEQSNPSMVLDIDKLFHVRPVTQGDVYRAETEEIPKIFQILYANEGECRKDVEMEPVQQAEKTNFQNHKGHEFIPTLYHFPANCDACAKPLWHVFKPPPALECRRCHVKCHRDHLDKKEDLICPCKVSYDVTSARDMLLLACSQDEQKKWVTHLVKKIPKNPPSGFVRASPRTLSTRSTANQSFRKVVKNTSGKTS

On to `CC(C)NC(=O)C1COc2ccc(-c3nccc(Nc4ccc5[nH]ncc5c4)n3)cc2O1` (centres unmarked) [TDI01103, 7-(4-((1H-indazol-5-yl)amino)pyrimidin-2-yl)-N-isopropyl-2,3-dihydrobenzo[b][1,4]dioxine-2-carboxamide], for which the IC50 (commonly the midpoint of a concentration-inhibition curve) is 2060 nM.

`CC(C)NC(=O)c1cc2ccc(-c3nccc(Nc4ccc5[nH]ncc5c4)n3)cc2s1` [TDI01104, 6-(4-((1H-indazol-5-yl)amino)pyrimidin-2-yl)-N-isopropylben-zo[b]thiophene-2-carboxamide] gave an IC50 of 870 nM.

In the case of `CNC(=O)c1cc2ccc(-c3nccc(Nc4ccc5[nH]ncc5c4)n3)cc2s1` [TDI01109, 6-(4-((1H-indazol-5-yl)amino)pyrimidin-2-yl)-N-methylben-zo[b]thiophene-2-carboxamide], the IC50 is above 10000 nM.

`CN(C)C(=O)c1cc2ccc(-c3nccc(Nc4ccc5[nH]ncc5c4)n3)cc2s1` [TDI01110, 6-(4-((1H-indazol-5-yl)amino)pyrimidin-2-yl)-N, N-dimethylben-zo[b]thiophene-2-carboxamide]: the IC50 is above 10000 nM.

Molecule `O=C(NC1CC1)c1cc2ccc(-c3nccc(Nc4ccc5[nH]ncc5c4)n3)cc2s1` [TDI01111, 6-(4-((1H-indazol-5-yl)amino)pyrimidin-2-yl)-N-cyclopropylben-zo[b]thiophene-2-carboxamide] showed an IC50 of 1410 nM.

`O=C(NC1CCOC1)c1cc2ccc(-c3nccc(Nc4ccc5[nH]ncc5c4)n3)cc2s1` (centres unmarked) [TDI01113, 6-(4-((1H-indazol-5-yl)amino)pyrimidin-2-yl)-N-(tetrahydrofuran-3-yl)benzo[b]thiophene-2-carboxamide] returned an IC50 of 554 nM.

For `O=C(Nc1ccnnc1)c1cc2ccc(-c3nccc(Nc4ccc5[nH]ncc5c4)n3)cc2s1` [TDI01116, 6-(4-((1H-indazol-5-yl)amino)-pyrimidin-2-yl)-N-(pyridazin-4-yl)benzo[b]-thiophene-2-carboxamide], the IC50 was above 10000 nM.

Consider `CC(C)NC(=O)c1cc2ccc(-c3nc(Nc4ccc5[nH]ncc5c4)c4ccn(CCN(C)C)c4n3)cc2s1` [TDI01122, 6-(4-((1H-indazol-5-yl)amino)-7-(2-(dimethylami-no)ethyl)-7H-pyrrolo[2,3-d]pyrimidin-2-yl)-N-isopropylben-zo[b]thiophene-2-carboxamide], for which the IC50 was 3270 nM.

Turning to `Cn1cc(NC(=O)c2cc3ccc(-c4nccc(Nc5ccc6[nH]ncc6c5)n4)cc3[nH]2)cn1` [TDI01134, 6-(4-((1H-indazol-5-yl)amino)-pyrimidin-2-yl)-N-(1-methyl-1H-pyrazol-4-yl)-1H-indole-2-carboxamide], the IC50 came to 1370 nM.

In turn, `CC(C)NC(=O)c1cc2ccc(-c3nc(Nc4ccc5[nH]ncc5c4)c4occc4n3)cc2s1` [TDI01135, 6-(4-((1H-indazol-5-yl)amino)furo[3,2-d]pyrimidin-2-yl)-N-isopropylben-zo[b]thiophene-2-carboxamide] displayed an IC50 of 3000 nM.

The molecule `CC(C)NC(=O)c1cc2ccc(-c3nc(Nc4ccc5[nH]ncc5c4)c4sccc4n3)cc2s1` [TDI01136, 6-(4-((1H-indazol-5-yl)amino)thieno[3,2-d]pyrimidin-2-yl)-N-isopropylben-zo[b]thiophene-2-carboxamide] yielded an IC50 of 827 nM.

On to `CC(C)NC(=O)c1cc2ccc(-c3nc(Nc4ccc5[nH]ncc5c4)c4sccc4n3)cc2[nH]1` [TDI01141, 6-(4-((1H-indazol-5-yl)amino)thieno[3,2-d]pyrimidin-2-yl)-N-isopropyl-1H-indole-2-carboxamide], for which it took 839 nM to reach half-maximal inhibition (IC50).

Take `CC(C)NC(=O)c1cc2ccc(-c3nc(Nc4ccc5[nH]ncc5c4)c4cc[nH]c4n3)cc2[nH]1` [TDI01143, 6-(4-((1H-indazol-5-yl)amino)-7H-pyrrolo[2,3-d]pyrimidin-2-yl)-N-isopropyl-1H-indole-2-carboxamide]: it took 1480 nM to reach half-maximal inhibition (IC50).

The molecule `CC(C)NC(=O)c1cc2ccc(-c3nc(Nc4ccc5[nH]ncc5c4)c4scnc4n3)cc2[nH]1` [TDI01149, 6-(7-((1H-indazol-5-yl)ami-no)thiazolo[4,5-d]pyrimidin-5-yl)-N-isopropyl-1H-indole-2-carboxamide] came in with an IC50 of 1320 nM.

The molecule `O=C(NC1CC1)c1cc2ccc(-c3nccc(Nc4ccc5[nH]ncc5c4)n3)cc2[nH]1` [TDI01151, 6-(4-((1H-indazol-5-yl)amino)-pyrimidin-2-yl)-N-cyclopropyl-1H-indole-2-carboxamide] had an IC50 of 892 nM.

`O=C(Nc1ccnnc1)c1cc2ccc(-c3nccc(Nc4ccc5[nH]ncc5c4)n3)cc2[nH]1` [TDI01152, 6-(4-((1H-indazol-5-yl)amino)-pyrimidin-2-yl)-N-(pyridazin-4-yl)-1H-indole-2-carboxaniide] displayed an IC50 above 10000 nM.

With `O=C(Nc1ccncc1)c1cc2ccc(-c3nccc(Nc4ccc5[nH]ncc5c4)n3)cc2[nH]1` [TDI01153, 6-(4-((1H-indazol-5-yl)amino)-pyrimidin-2-yl)-N-(pyridin-4-yl)-1H-indole-2-carboxamide], the IC50 amounted to 2720 nM.

Regarding `O=C(Nc1cnoc1)c1cc2ccc(-c3nccc(Nc4ccc5[nH]ncc5c4)n3)cc2[nH]1` [TDI01156, 6-(4-((1H-indazol-5-yl)amino)-pyrimidin-2-yl)-N-(isoxazol-4-yl)-1H-indole-2-carboxamide], the IC50 turned out to be 1990 nM.

The molecule `O=C(Nc1cnccn1)c1cc2ccc(-c3nccc(Nc4ccc5[nH]ncc5c4)n3)cc2[nH]1` [TDI01160, 6-(4-((1H-indazol-5-yl)amino)pyrimidin-2-yl)-N-(pyrazin-2-yl)-1H-indole-2-carboxamide] came in with an IC50 of 2240 nM.

`O=C(Nc1ccncn1)c1cc2ccc(-c3nccc(Nc4ccc5[nH]ncc5c4)n3)cc2[nH]1` [TDI01161, 6-(4-((1H-indazol-5-yl)amino)-pyrimidin-2-yl)-N-(pyrimidin-4-yl)-1H-indole-2-carboxamide] yielded an IC50 above 10000 nM.

Take `O=C(Nc1ccnnc1)c1cc2ccc(-c3nc(Nc4ccc5[nH]ncc5c4)cc4nccn34)cc2[nH]1` [TDI01164, 6-(7-((1H-indazol-5-yl)amino)-imidazo[1,2-c]pyrimidin-5-yl)-N-(pyridazin-4-yl)-1H-indole-2-carboxamide]: the IC50 is above 10000 nM.

For `O=C(Nc1ccnnc1)c1cc2ccc(-c3ncnc(Nc4ccc5[nH]ncc5c4)n3)cc2[nH]1` [TDI01167, 6-(4-((1H-indazol-5-yl)amino)-1,3,5-triazin-2-yl)-N-(pyridazin-4-yl)-1H-indole-2-carboxamide], the IC50 was above 10000 nM.

The molecule `O=C(Nc1ccnnc1)c1cc2ccc(-c3nc(Nc4ccc5[nH]ncc5c4)c4sccc4n3)cc2[nH]1` [TDI01175, 6-(4-((1H-indazol-5-yl)amino)-thieno[3,2-d]pyrimidin-2-yl)-N-(pyridazin-4-yl)-1H-indole-2-carboxamide] came in with an IC50 of 5190 nM.

`CC(CO)NC(=O)c1cc2ccc(-c3nccc(Nc4ccc5[nH]ncc5c4)n3)cc2[nH]1` (centres unmarked) [TDI01176, 6-(4-((1H-indazol-5-yl)amino)-pyrimidin-2-yl)-N-(1-hydroxypropan-2-yl)-1H-indole-2-carboxamide] had a 50% inhibitory concentration (IC50) of 521 nM.

Regarding `O=C(Nc1ccnnc1Cl)c1cc2ccc(-c3nccc(Nc4ccc5[nH]ncc5c4)n3)cc2[nH]1` [TDI01180], it took 2780 nM to reach half-maximal inhibition (IC50).

As to `O=C(Nc1cnncc1Cl)c1cc2ccc(-c3nccc(Nc4ccc5[nH]ncc5c4)n3)cc2[nH]1` [TDI01181, 6-(4-((1H-indazol-5-yl)amino)-pyrimidin-2-yl)-N-(5-chloropridazin-4-yl)-1H-indole-2-carboxamide], the IC50 is 947 nM.
